This is an account of results in ChEMBL document CHEMBL4196101, “Dual Leucine Zipper Kinase Inhibitors for the Treatment of Neurodegeneration” (J Med Chem, 2018).

This assay concerns the target Mitogen-activated protein kinase kinase kinase 12 (Homo sapiens) (UniProt Q12852). Briefly: Inhibition of DLK (unknown origin) using myelin basic protein as substrate preincubated for 15 mins measured after 30 mins in presence of [gamma-32P]ATP by scintillation counting.

Mitogen-activated protein kinase kinase kinase 12 (Homo sapiens), sequence (Q12852 whole entry, looked up): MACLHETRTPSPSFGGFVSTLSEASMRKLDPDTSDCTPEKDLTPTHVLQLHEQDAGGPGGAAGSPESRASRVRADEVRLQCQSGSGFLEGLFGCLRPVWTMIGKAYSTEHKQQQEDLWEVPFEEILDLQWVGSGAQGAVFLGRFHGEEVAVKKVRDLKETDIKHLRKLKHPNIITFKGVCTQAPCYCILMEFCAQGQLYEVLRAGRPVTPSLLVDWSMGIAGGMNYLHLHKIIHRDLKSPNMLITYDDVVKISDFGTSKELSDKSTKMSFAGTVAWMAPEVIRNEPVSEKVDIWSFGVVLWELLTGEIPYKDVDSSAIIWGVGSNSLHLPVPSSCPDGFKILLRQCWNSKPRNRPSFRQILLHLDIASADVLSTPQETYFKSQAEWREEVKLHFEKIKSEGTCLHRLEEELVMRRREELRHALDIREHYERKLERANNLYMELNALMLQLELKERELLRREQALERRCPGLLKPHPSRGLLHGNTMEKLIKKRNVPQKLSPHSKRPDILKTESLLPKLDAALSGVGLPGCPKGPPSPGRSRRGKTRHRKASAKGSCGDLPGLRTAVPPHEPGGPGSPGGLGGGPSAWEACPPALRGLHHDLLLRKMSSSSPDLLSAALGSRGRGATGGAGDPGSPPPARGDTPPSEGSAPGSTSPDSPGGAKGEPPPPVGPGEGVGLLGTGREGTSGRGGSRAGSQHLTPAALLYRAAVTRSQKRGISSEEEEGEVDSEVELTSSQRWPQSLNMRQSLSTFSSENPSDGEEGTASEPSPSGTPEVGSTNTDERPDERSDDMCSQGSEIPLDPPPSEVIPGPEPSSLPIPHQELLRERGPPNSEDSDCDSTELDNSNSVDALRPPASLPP

As to `CCSCc1ccc2c(c1)c1c3c(c4c5cc(CSCC)ccc5n5c4c1n2[C@H]1C[C@](O)(C(=O)OC)[C@]5(C)O1)CNC3=O` [CEP-1347], the IC50 was found to be 114 nM.

The term IC50 denotes the point on the concentration scale where inhibition reaches its midpoint.
